Laboratory results taken from PMC11272826, “Metabolism of alcohol ethoxylates (AEs) in rat, hamster, and human hepatocytes and liver S9: a pilot study for metabolic stability, metabolic pathway, and metabolites identification in vitro and in silico” (Archives of Toxicology, 2024).

Legend:
[1] = Metabolic stability in cryopreserved hepatocytes (disappearance, half-life, CLint); conditions: Syrian, hamster, pooled cryopreserved hepatocytes, pH 7.4
Procedure: (§2) The metabolic stability assay was performed in a 48-well plate format (duplicate with cells and single without cells).
(§3) The hepatocytes were thawed and re-suspended in Celsis InVitro KHB medium (pH 7.4). […] The samples were collected and stored at − 20 °C for further analysis.
(§4) The UPLC-Q-Exactive Orbitrap MS system consisted of a Thermo Vanquish Horizon UHPLC with an autosampler, vacuum degasser, photodiode array (PDA) detector (210–500 nm), and column oven coupled to a Q-Exactive Orbitrap Focus mass spectrometer (Thermo Fisher Scientific, Waltham, MA, USA). The analytical column used was a Waters Acquity BEH C8 2.1 × 50 mm with 1.7 particle size (Waters Corp, Milford, MA, USA). The temperature of the column oven was 40 °C, and the injection volume was 4 μl. The aqueous eluent (A) was 0.1% formic acid (B) was acetonitrile. […] The eluent flow rate was 0.5 ml/min and the flow was directed to the MS through a PDA detector. The data acquisition was performed using positive Electrospray Ionization (ESI+) polarity with a capillary voltage of 3000 V. Capillary temperature was 320 °C and auxiliary gas temperature was 500 °C. The mass spectrometer was operated in the data-dependent MS2 mode, which acquires full-scan MS and MS/MS fragment ion data in the same run. Scan was performed with a resolution of 35,000 (full width at half maximum at m/z 200), while an Automated Gain Control target of a million ions, maximum injection time of 100 ms, and a scan range of 100–1000 m/z were used. […] Nitrogen was used as a sheath gas with 50 units, auxiliary gas with 10 units and as a sweep gas with 5 units. Ion chromatograms were extracted from the total ion chromatograms using calculated monoisotopic accurate masses with 5 mDa window. Calibration curves were generated using an external standard. The data were processed with Thermo Xcalibur 4.1.31.9 software.
(§5) The first-order rate constants k (min^−1) of the metabolism were obtained from the slope of time versus ln (% remaining) plots using Excel software. All time points (log-scale) were used in fitting the rate constant k based on visual inspection of the curves.
(§6) The in vitro half-life (t1/2) of the test compound(s) is defined as: t1/2=ln2/k
(§7) CLint,inc = k*V/(M), where V is the volume of the incubation and M is the number of cells or amount of S9 protein in the incubation.

hamster hepatocytes [2] = assay: as above; conditions: hamster hepatocytes; for Initial concentration remaining after 120 min incubation: range over 1 and 10 µM
Procedure: as §2, §3, §4, §5, §6, §7

rat hepatocytes [3] = assay: as above; conditions: rat hepatocytes; for Initial concentration remaining after 120 min incubation: range over 1 and 10 µM
Procedure: as §2, §3, §4, §5, §6, §7

[4] = as above; conditions: Sprague Dawley, rat, pooled cryopreserved hepatocytes, pH 7.4
Procedure: as §2, §3, §4, §5, §6, §7

rat hepatocytes [5] = assay: Metabolite profiling by LC-MS in hepatocytes; conditions: for Percentage of the total peak area, Hepatocytes, Rat: 120 min; for Number of metabolites detected: rat hepatocytes
Procedure: as §3
(§8) The in vitro metabolism of the five individual homologue AEs (i.e. C8EO4, C10EO5, C12EO4, C16EO8, and C18EO3) was analyzed by liquid chromatography–mass spectrometry (LC–MS). The UPLC-Q-Exactive Orbitrap MS system consisted of a Thermo Vanquish Horizon UHPLC with an autosampler, vacuum degasser, photodiode array (PDA) detector (210–500 nm), and column oven coupled to a Q-Exactive Orbitrap Focus mass spectrometer (Thermo Fisher Scientific, Waltham, MA, USA). The analytical column used was a Waters Acquity BEH C8 2.1 × 50 mm with 1.7 particle size (Waters Corp, Milford, MA, USA). The temperature of the column oven was 40 °C, and the injection volume was 4 μl. The aqueous eluent (A) was 0.1% formic acid (B) was acetonitrile. […] The eluent flow rate was 0.5 ml/min and the flow was directed to the MS through a PDA detector. The data acquisition was performed using positive Electrospray Ionization (ESI+) polarity with a capillary voltage of 3000 V. Capillary temperature was 320 °C and auxiliary gas temperature was 500 °C. The mass spectrometer was operated in the data-dependent MS2 mode, which acquires full-scan MS and MS/MS fragment ion data in the same run. Scan was performed with a resolution of 35,000 (full width at half maximum at m/z 200), while an Automated Gain Control target of a million ions, maximum injection time of 100 ms, and a scan range of 100–1000 m/z were used. […] Nitrogen was used as a sheath gas with 50 units, auxiliary gas with 10 units and as a sweep gas with 5 units. Ion chromatograms were extracted from the total ion chromatograms using calculated monoisotopic accurate masses with 5 mDa window. Calibration curves were generated using an external standard. The data were processed with Thermo Xcalibur 4.1.31.9 software.

[6] = Metabolite profiling by LC-MS in liver S9
Source text: (§1) Calibration curves were generated using an external standard.

human hepatocytes [7] = assay: Metabolite profiling by LC-MS in hepatocytes; conditions: for Number of metabolites detected: human hepatocytes; for Percentage of the total peak area, Hepatocytes, Human: 120 min
Procedure: as §3, §8

human hepatocytes [8] = assay: Metabolic stability in cryopreserved hepatocytes (disappearance, half-life, CLint); conditions: human hepatocytes; for Initial concentration remaining after 120 min incubation: range over 1 and 10 µM
Procedure: as §2, §3, §4, §5, §6, §7

[9] = as above; conditions: human, pooled cryopreserved hepatocytes, pH 7.4
Procedure: as §2, §3, §4, §5, §6, §7

[10] = Metabolite profiling by LC-MS in buffer (incubation without cells); conditions: 120 min
Procedure: as §3, §8

[11] = Metabolic stability in liver S9 fraction (disappearance, half-life, CLint); conditions: for Initial concentration remaining after 60 min incubation: human liver S9, range over 1 and 10 µM; for microsomal CLint at 1 µM / microsomal CLint at 10 µM / half-life at 1 µM / half-life at 10 µM: human; for microsomal CLint at 1 µM / microsomal CLint at 10 µM: pooled liver S9, pH 7.4; for half-life at 1 µM: pooled liver S9, pH 7.4, Half-lives t1/2, Liver S9, 1 μM; for half-life at 10 µM: pooled liver S9, pH 7.4, Half-lives t1/2, Liver S9, 10 μM
Procedure: The metabolic stability assay was performed in a 48-well plate format (duplicate with cofactors and single without cofactors).
Each incubation contained test compound (final concentration of 1 or 10 µM), liver S9 (1.5 mg/ml protein content), Cofactors (1 mM NADPH + 1 mM UDPGA + 0.2 mM PAPS), MgCl2 (2 mM), and potassium phosphate buffer (100 mM at pH 7.4). […] The incubation was carried out at 37 °C for 60 min with and without cofactors. […] The samples were collected and stored at − 20 °C for further analysis.
as §8, §5, §6, §7

hamster hepatocytes [12] = assay: Metabolite profiling by LC-MS in hepatocytes; conditions: for Number of metabolites detected: hamster hepatocytes; for Percentage of the total peak area, Hepatocytes, Hamster: 120 min
Procedure: as §3, §8

[13] = Metabolic stability in liver S9 fraction (disappearance, half-life, CLint); conditions: for half-life at 1 µM / half-life at 10 µM / microsomal CLint at 1 µM / microsomal CLint at 10 µM: pooled liver S9, pH 7.4; for Relative LC/MS peak area: with cofactors, 60 min
Procedure: as §1
Intrinsic in vitro clearance was calculated as follows: […]

[14] = tested on: female Colworth Wistar rats; set-up: method as in Unilever [1978]; conditions: 14C-labelled, oral, rat, ref Unilever [1978], cited from earlier work
[15] = metabolite profile of C8EO4, 10 µM incubation
[16] = hamster liver S9, range over 1 and 10 µM
[17] = rat liver S9, range over 1 and 10 µM
[18] = metabolite profile of C10EO5, 10 µM incubation
[19] = metabolite profile of C10EO5, 10 µM incubation, 60 min
[20] = metabolite profile of C12EO4, 10 µM incubation
[21] = metabolite profile of C12EO4, 10 µM incubation, 60 min

CCCCCCCCOCCOCCOCCOCCO [C8EO4]
half-life at 1 µM [1]: 4.3 min | half-life at 10 µM [1]: 6.5 min | Initial concentration remaining after 120 min incubation (hamster hepatocytes [2]): 0.1–3% | Initial concentration remaining after 120 min incubation (rat hepatocytes [3]): 0.1–3% | half-life at 1 µM [4]: 3.2 min | half-life at 10 µM [4]: 3.6 min | Percentage of the total peak area, Hepatocytes, Rat (rat hepatocytes [5]; [15]): 0.1% | Number of metabolites detected (rat hepatocytes [5]): 20 | Number of metabolites detected ([6]; hamster liver S9): 20 | Number of metabolites detected ([6]; human liver S9): 17 | Number of metabolites detected ([6]; rat liver S9): 16 | Number of metabolites detected (human hepatocytes [7]): 21 | Percentage of the total peak area, Hepatocytes, Human (human hepatocytes [7]; [15]): 0.1% | Initial concentration remaining after 120 min incubation (human hepatocytes [8]): 0.1–3% | half-life at 1 µM [9]: 12.9 min | half-life at 10 µM [9]: 12 min | Percentage of the total peak area, Hepatocytes, Buffer ([10]; metabolite profile of C8EO4, 10 µM incubation without cells): 99.8% | Initial concentration remaining after 60 min incubation [11]: 1–6% | microsomal CLint at 1 µM [11]: 39.2 µL/min/mg | microsomal CLint at 10 µM [11]: 33.6 µL/min/mg | half-life at 1 µM [11]: 11.8 min | half-life at 10 µM [11]: 13.8 min | Number of metabolites detected (hamster hepatocytes [12]): 22 | Percentage of the total peak area, Hepatocytes, Hamster (hamster hepatocytes [12]; [15]): 0.1% | half-life at 1 µM ([13]; Sprague-Dawley, rat): 37.8 min | half-life at 10 µM ([13]; Sprague-Dawley, rat): 58.1 min | microsomal CLint at 1 µM ([13]; Sprague-Dawley, rat): 12.2 µL/min/mg | microsomal CLint at 10 µM ([13]; Sprague-Dawley, rat): 7.95 µL/min/mg | half-life at 1 µM ([13]; Syrian, hamster): 7.7 min | half-life at 10 µM ([13]; Syrian, hamster): 14.5 min | microsomal CLint at 1 µM ([13]; Syrian, hamster): 59.7 µL/min/mg | microsomal CLint at 10 µM ([13]; Syrian, hamster): 31.8 µL/min/mg | Initial concentration remaining after 60 min incubation [13, 16]: 1–6% | Initial concentration remaining after 60 min incubation [13, 17]: 34–49%

CCCCCCCCCCOCCOCCOCCOCCOCCO [C10EO5]
half-life at 1 µM [1]: 4.5 min | half-life at 10 µM [1]: 10.6 min | Initial concentration remaining after 120 min incubation (hamster hepatocytes [2]): 0.2–4% | Initial concentration remaining after 120 min incubation (rat hepatocytes [3]): 0.2–4% | half-life at 1 µM [4]: 2.9 min | half-life at 10 µM [4]: 1.9 min | Percentage of the total peak area, Hepatocytes, Rat (rat hepatocytes [5]; [18]): 0.8% | Number of metabolites detected (rat hepatocytes [5]): 28 | Number of metabolites detected ([6]; human liver S9): 26 | Percentage of the total peak area, Liver S9 without cofactors, Hamster [6, 19]: 97.9% | Percentage of the total peak area, Liver S9 without cofactors, Human [6, 19]: 97.7% | Percentage of the total peak area, Liver S9 without cofactors, Rat [6, 19]: 98.2% | Number of metabolites detected (human hepatocytes [7]): 28 | Percentage of the total peak area, Hepatocytes, Human (human hepatocytes [7]; [18]): 0.3% | Initial concentration remaining after 120 min incubation (human hepatocytes [8]): 0.2–4% | half-life at 1 µM [9]: 4 min | half-life at 10 µM [9]: 4.9 min | Percentage of the total peak area, Hepatocytes, Buffer ([10]; metabolite profile of C10EO5, 10 µM incubation without cells): 98.7% | Initial concentration remaining after 60 min incubation [11]: 0.01–4% | microsomal CLint at 1 µM [11]: 234 µL/min/mg | microsomal CLint at 10 µM [11]: 170 µL/min/mg | half-life at 1 µM [11]: 2 min | half-life at 10 µM [11]: 2.7 min | Number of metabolites detected (hamster hepatocytes [12]): 28 | Percentage of the total peak area, Hepatocytes, Hamster (hamster hepatocytes [12]; [18]): 0.7% | half-life at 1 µM ([13]; Sprague-Dawley, rat): 8.3 min | half-life at 10 µM ([13]; Sprague-Dawley, rat): 12 min | microsomal CLint at 1 µM ([13]; Sprague-Dawley, rat): 55.7 µL/min/mg | microsomal CLint at 10 µM ([13]; Sprague-Dawley, rat): 38 µL/min/mg | half-life at 1 µM ([13]; Syrian, hamster): 8.1 min | half-life at 10 µM ([13]; Syrian, hamster): 12 min | microsomal CLint at 1 µM ([13]; Syrian, hamster): 57.3 µL/min/mg | microsomal CLint at 10 µM ([13]; Syrian, hamster): 40 µL/min/mg | Initial concentration remaining after 60 min incubation [13, 16]: 0.01–4% | Initial concentration remaining after 60 min incubation [13, 17]: 0.01–4%

CCCCCCCCCCCCOCCOCCOCCO [C12EO3]
Total recovery in urine, feces, air, and carcass of the administered compound ([14]; 4 days): ~100% | 14C in air [14]: about 10%

CCCCCCCCCCCCOCCOCCOCCOCCO [C12EO4]
half-life at 1 µM [1]: 789 min | half-life at 10 µM [1]: 17 min | Relative LC/MS peak area (hamster hepatocytes [2]; 10 μM, 120 min): 11% | Relative LC/MS peak area (rat hepatocytes [3]; 10 μM, 120 min): 12% | half-life at 10 µM [4]: 8.9 min | Percentage of the total peak area, Hepatocytes, Rat (rat hepatocytes [5]; [20]): 12.7% | Percentage of the total peak area, Liver S9 with cofactors, Hamster [6, 21]: 18.1% | Percentage of the total peak area, Liver S9 with cofactors, Human [6, 21]: 2.1% | Percentage of the total peak area, Liver S9 with cofactors, Rat [6, 21]: 2.0% | Percentage of the total peak area, Liver S9 without cofactors, Hamster [6, 21]: 98.4% | Percentage of the total peak area, Liver S9 without cofactors, Human [6, 21]: 98.8% | Percentage of the total peak area, Liver S9 without cofactors, Rat [6, 21]: 99.7% | Number of metabolites detected (human hepatocytes [7]): 28 | Percentage of the total peak area, Hepatocytes, Human (human hepatocytes [7]; [20]): 12.5% | Relative LC/MS peak area (human hepatocytes [8]; 10 μM, 120 min): 40% | half-life at 10 µM [9]: 15 min | Percentage of the total peak area, Hepatocytes, Buffer ([10]; metabolite profile of C12EO4, 10 µM incubation without cells): 79.1% | Relative LC/MS peak area ([11]; human liver S9, 10 μM, with cofactors, 60 min): 3% | microsomal CLint at 10 µM [11]: 51.2 µL/min/mg | half-life at 10 µM [11]: 9 min | Percentage of the total peak area, Hepatocytes, Hamster (hamster hepatocytes [12]; [20]): 13.2% | half-life at 1 µM ([13]; Sprague-Dawley, rat): 26 min | half-life at 10 µM ([13]; Sprague-Dawley, rat): 11 min | microsomal CLint at 1 µM ([13]; Sprague-Dawley, rat): 17.5 µL/min/mg | microsomal CLint at 10 µM ([13]; Sprague-Dawley, rat): 40.7 µL/min/mg | half-life at 10 µM ([13]; Syrian, hamster): 26 min | microsomal CLint at 10 µM ([13]; Syrian, hamster): 17.9 µL/min/mg | Relative LC/MS peak area ([13]; hamster liver S9, 10 μM): 24% | Relative LC/MS peak area ([13]; rat liver S9, 10 μM): 3%
